Measurements as given in PubChem BioAssay AID1259427 (Fisher Drug Discovery Resource Center, 2018).
Calls of active or inactive are those of the source.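 The calls were made as follows: active = EC50 at or below a set limit, with no effect in the paired counter-screen assay; inactive = the rest.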

Target: Aedes aegypti neuropeptide Y-like receptor 7 (NPYLR7)
Test: agonists of mosquito NPYLR7 receptor, confirmation, cell-based, Aedes aegypti, hit validation, mosquito biting behavior (AID 1259427);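 also: potency of agonists that activate the receptor and raise the calcium signal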
Details: HEK293T NPYLR7/Galpha15/GCaMP6s, calcium fluorescence

SMILES | EC50
O=C1CSC(=S)N1N=Cc1cc(Br)c(O)c(Br)c1 | inactive
O=C1NC(c2ccc3c(c2)OCO3)C(C(=O)c2ccccc2)C(O)(C(F)(F)F)N1 (configuration not stated) | > 20 µM (inactive)
C=CCN1C=CC(=CC=C(C#N)C#N)C=C1 | inactive
Cc1cccc(N2C(=O)NC(=O)/C(=C/c3cn(C)c4ccccc34)C2=O)c1 | > 20 µM (inactive)
N#Cc1cccc(C(=O)N2CCN(C(c3ccccc3)c3ccc(Br)cc3)CC2)c1 (configuration not stated) | > 20 µM (inactive)
O=C(CNCc1ccccc1)N1CC(=O)N(c2cccc(Cl)c2)C1 | > 20 µM (inactive)
CCCCC(CC)CN=C(N)NC(N)=NCCCCCCN=C(N)NC(N)=NCC(CC)CCCC (configuration not stated) | 17.3 µM
COc1cc(NC(=O)N2CC(=O)N3CCc4c(F)cccc4C3C2)cc(OC)c1OC (configuration not stated) | > 20 µM (inactive)
CCOC(=O)c1c(-c2ccccc2)csc1N=Cc1nc(-c2ccco2)oc1O | > 20 µM (inactive)
CCN(CC)c1ccc(/C=C2\SC(=S)N(CC(=O)O)C2=O)c(O)c1 | inactive
CC1C(=O)N(c2cccc(F)c2)CCN1C(=O)C1CC1 (configuration not stated) | > 20 µM (inactive)
COc1ccc2c(c1)OCC(C=C(C#N)S(=O)(=O)c1ccc(Br)cc1)=C2 | > 20 µM (inactive)
Clc1cccc2ccc(CN3CCn4cncc4C3)nc12 | > 20 µM (inactive)
O=C(O)CN1C(=O)/C(=C\c2cc([N+](=O)[O-])cc(Br)c2O)SC1=S | inactive
CC1CN(c2ccc(/C=C(\C#N)c3nc4ccccc4[nH]3)o2)CC(C)O1 (configuration not stated) | > 20 µM (inactive)
CC1=CC(C)C(C(=O)O)C(C(=O)O)C1 (configuration not stated) | > 20 µM (inactive)
CC[C@@]1(O)C(=O)OCc2c1cc1n(c2=O)Cc2cc3c(CN(C)C)c(O)ccc3nc2-1 | inactive
CCOC(=O)C1CCCN(CC(=O)N2N=C(c3ccccc3Cl)CC2c2ccc(Cl)cc2)C1 (configuration not stated) | > 20 µM (inactive)
CCCc1ccccc1N1C(=O)CSC1c1ccc(NC(=O)CCl)cc1 (configuration not stated) | > 20 µM (inactive)
CCCc1[nH]n(-c2ccc(Cl)cc2)c(=O)c1/C=C1\NC(=O)N(Cc2ccc(C)cc2)C1=O | > 20 µM (inactive)
O=C1SC(Nc2ccc(Br)cc2)C(=O)N1c1ccccc1 (configuration not stated) | > 20 µM (inactive)
N#CC(C#N)=C1C=C2C=C(N3CCN(Cc4ccccc4)CC3)CCC2CC1 (configuration not stated) | > 20 µM (inactive)
CCOc1cc2c(cc1C=C(C#N)C#N)OC(C)C2 (configuration not stated) | > 20 µM (inactive)
CCOc1cc(C=O)c(O)c(C=O)c1 | inactive
CSc1nc(N)c2ncn([C@@H]3O[C@H](COP(=O)(O)OP(=O)(O)OP(=O)(O)O)[C@H](O)C3O)c2n1 (some centres not stated) | inactive
Cc1ccc(Cl)c(Oc2cc(N3CCN(C(=O)c4ccc(Cl)c(Cl)c4)CC3)ncn2)c1 | > 20 µM (inactive)

SMILES | EC50
CC(C)NCC(O)c1ccc(O)c(O)c1 (configuration not stated) | > 20 µM (inactive)
COc1cc(C=C2C=c3c(O)cccc3=C2O)cc(Cl)c1O | inactive
CN1C(=CC=C2C(=O)Oc3ccccc3C2=O)C(C)(C)c2ccccc21 | inactive
NC(=O)CN1c2cccc3cccc(c23)S1(=O)=O | > 20 µM (inactive)
CCOc1cccc(C=C2Oc3cc(O)ccc3C2=O)c1OC | > 20 µM (inactive)
N#C/C(=C/c1ccc(N2CCCCCC2)o1)c1ccc(F)cc1 | > 20 µM (inactive)
COc1ccc(NC[C@@H]2C=C(C)[C@H](Cc3nnc(C)o3)C[C@H]2C(C)C)cn1 | > 20 µM (inactive)
CC(C)C(=O)Nc1sc2c(c1-c1nc3ccccc3s1)CCN(C)C2 | > 20 µM (inactive)
N#Cc1cc2cc(Cl)cc(Cl)c2oc1=O | inactive
Cc1ccc(C2=NN(C(=O)CN3CCN(C)CC3)C(c3ccccc3Cl)C2)cc1 (configuration not stated) | > 20 µM (inactive)
COc1cc(C=CC(=O)c2ccc3c(c2)OCCO3)cc(Br)c1O | inactive
O=[N+]([O-])c1ccc(-n2nc3ccc4nonc4c3n2)cc1 | > 20 µM (inactive)
Cc1nc(Sc2nnc3ccccn23)c2c3c(sc2n1)CCCC3 | > 20 µM (inactive)
Nc1ccc2c3c(cccc13)C(=O)N(c1ccccc1)C2=O | inactive
CNC(=O)NC(=O)CCN1CC(c2ccccc2Cl)c2c([nH]c3ccccc23)C1C (configuration not stated) | > 20 µM (inactive)
CC1(C)CC(c2[nH]cnc2-c2ccccc2)CCO1 (configuration not stated) | > 20 µM (inactive)
Cc1c(NC(=O)COC(=O)C(C#N)=Cc2ccc(N(C)C)cc2)c(=O)n(-c2ccccc2)n1C | > 20 µM (inactive)
Oc1ccc(-c2onc3ccc(Cl)cc23)cc1 | > 20 µM (inactive)
COCCOc1ccc(NC(=O)N(C)C(C)C2(C)CC2)cn1 (configuration not stated) | > 20 µM (inactive)
O=C(O)CN1C(=O)/C(=C/c2cc(Br)c(O)c(Br)c2)SC1=S | inactive
Clc1ccc(-c2noc3c2CN(CCn2cc(Cl)cn2)CC3)cc1 | > 20 µM (inactive)
COc1ccc(CN2CCN(Cc3cccn3-c3ncccn3)CC2CCO)c(C)c1C (configuration not stated) | > 20 µM (inactive)
Cc1cc2c(c(-c3ccc4c(cnn4C)c3)c1)OC(CN)C2 (configuration not stated) | > 20 µM (inactive)
O[C@@H]1CN(Cc2ccncc2Cl)CC[C@H]1c1ccc2c(c1)OCO2 | > 20 µM (inactive)
COc1ccccc1OCCCOc1ccc(Br)cc1Cl | > 20 µM (inactive)
O=C(c1cnn(-c2ccccc2)n1)N1CCCC(COCc2ccccc2)C1 (configuration not stated) | inactive

SMILES | EC50
Cn1c(C(C#N)=Cc2c(F)c(F)c(F)c(F)c2F)nc2ccccc21 | < 0.039 µM (inactive)
CN(Cc1cnc2ccccc2n1)C(=O)C1CC2(CCNCC2)CN1 (configuration not stated) | > 20 µM (inactive)
COc1ccc(C(=O)C=Cc2cc(OC)c(O)c(OC)c2)cc1F | > 20 µM (inactive)
N#C/C(=C\c1ccc(O)c(O)c1)C(=O)NCc1ccccc1 | > 20 µM (inactive)
O=C(CN1C(=O)SC(=Cc2ccc(N3CCCCCC3)o2)C1=O)N1CCCCCC1 | > 20 µM (inactive)
Cc1ccc(CNC(=O)NC(c2ccc3c(c2)OCCCO3)C(C)C)cc1F (configuration not stated) | > 20 µM (inactive)
COC(=O)c1cc(N)c(/C=C/c2cccs2)s1 | inactive
CC[n+]1c(/C=C/C=C2/N(C)c3ccccc3C2(C)C)sc2ccccc21 | > 20 µM (inactive)
O=C(Cc1ccc2c(c1)CCC2)NCC1CCN(c2ccccc2)C1 (configuration not stated) | > 20 µM (inactive)
CN=c1nc(-c2ccccc2)n(-c2ccccc2)s1 | 19.9 µM
CCOc1cc(/C=C2\SC(=S)N(NC(=O)c3ccccc3O)C2=O)ccc1O | > 20 µM (inactive)
Cc1oc(-c2cccc(NC(=O)CC(C)C)c2)nc1CNC(=O)Cc1cc(F)cc(F)c1 | > 20 µM (inactive)
CNC[C@H](O)c1ccc(O)c(O)c1 | inactive
O=c1[nH]c(CCl)nc2sc3c(c12)CCN(Cc1ccccc1)C3 | > 20 µM (inactive)
CCOc1cc(/C=C2\C(=N)N3N=CSC3=NC2=O)cc(Br)c1OC(=O)c1ccccc1 | inactive
CCC(CO)[n+]1c(C)cc(C=C2Sc3ccccc3N2CC)cc1C (configuration not stated) | inactive
Cc1ccc2c(c1)CCCN2CC(=O)N(CCC(N)=O)c1ccccc1 | > 20 µM (inactive)
COc1cc(OC)c(C2=NOC3(CC(=O)N(c4cccc(Cl)c4)C3=O)C2)cc1OC (configuration not stated) | > 20 µM (inactive)
N#CC(C#N)=C1C=C2C=C(N3CCc4ccccc4C3)CCC2CC1 (configuration not stated) | > 20 µM (inactive)
FC(F)(F)c1cc(-c2cccs2)nc2ncnn12 | > 20 µM (inactive)
CCCCNC(=O)CCCCCNC(N)=O | > 20 µM (inactive)
O=C(O)c1csc(CSc2nnc(Cc3ccccc3)n2-c2cccc(C(F)(F)F)c2)n1 | > 20 µM (inactive)
NS(=O)(=O)c1ccc(NC(NC(=O)c2ccco2)C(=O)c2ccc(Cl)cc2)cc1 (configuration not stated) | > 20 µM (inactive)
O=C(O)CCn1c(O)c(C=C2C=Nc3ccccc32)sc1=S | > 20 µM (inactive)
CCOC=C(C#N)c1nc(C)cs1 | inactive
CC(C)OC(=O)C(C(=O)C(F)(F)F)c1cc(NS(=O)(=O)c2ccc(Cl)cc2)ccc1O (configuration not stated) | > 20 µM (inactive)

SMILES | EC50
O=C(COc1ccccc1)N1CCCC(CNS(=O)(=O)c2cccs2)C1 (configuration not stated) | 13.2 µM
C#CCN1C(=O)SC(=Cc2ccc(N3CCCCC3)o2)C1=O | inactive
Nc1ncnc2c1ncn2[C@@H]1O[C@H](CO)[C@@H](O)[C@H]1O | inactive
CC1(C)CC(=O)C2C(=Nc3[nH]c(=S)[nH]c(=O)c3C2c2ccc3c(c2)OCO3)C1 (configuration not stated) | > 20 µM (inactive)
CN1CCc2c(sc(NC(=O)Cc3ccccc3)c2-c2nc3ccccc3s2)C1 | > 20 µM (inactive)
CCn1c(O)c(C=Nc2c(C#N)c(C)c(C)n2C2CCCCC2)c(=O)n(CC)c1=S | inactive
COc1cc(/C=C2\SC(=S)N(c3cccc(C(=O)O)c3)C2=O)ccc1O | > 20 µM (inactive)
CN(Cc1ccccc1)C1=CC2=CC(=C(C#N)C#N)CCC2CC1 (configuration not stated) | 5.13 µM
COc1ccc(-c2cccc(-c3ccc(NC(=O)c4oc5ccccc5c4C)cc3)n2)cc1 | > 20 µM (inactive)
O=C1c2cccc3c(NCCO)ccc(c23)C(=O)N1CCO | < 0.039 µM (inactive)
CCN(CC)c1ccc(/C=C2/SC(=S)N(CC(=O)O)C2=O)cc1 | inactive
CCCN1CCc2c(sc3c2c(NC(CC)CO)nc2nnnn23)C1 (configuration not stated) | > 20 µM (inactive)
N#C/C(=C\c1ccc(O)c(O)c1)C(=O)NCCCc1ccccc1 | 17.4 µM
Cc1ccc(OCCNC(=O)N2CCN(S(=O)(=O)c3ccccc3Cl)CC2)c(C)c1 | > 20 µM (inactive)
O=C1C(=Cc2ccccc2O)NC(=S)N1Cc1ccco1 | inactive
Cc1ccc(C(=O)C=Cc2ccc(N(C)C)cc2)o1 | < 0.039 µM (inactive)
CC(C)(C)c1cnc(CSc2cnc(NC(=O)C3CCNCC3)s2)o1 | 14.9 µM
COC(=O)c1cnc(/C=C/c2cc(C)c(O)c(C)c2)s1 | > 20 µM (inactive)
COc1ccccc1CCNC(=O)c1ccc(Cn2c(C)nc3ccccc32)o1 | > 20 µM (inactive)
CCOc1ccc(C(=O)Nc2sc3c(c2-c2nc4ccccc4s2)CCN(C)C3)cc1 | > 20 µM (inactive)
COc1ccc2c(C)nc(N=C(N)N)nc2c1 | 19.6 µM
N#CC(C#N)=C1C=C2C=C(N3CCCCC3)CCC2CC1 (configuration not stated) | < 0.039 µM (inactive)
COCCCNCc1c(-c2ccc(F)cc2)noc1N1CCOCC1 | > 20 µM (inactive)
COc1cc(C=C2SC(=S)NC2=O)cc(Br)c1O | inactive
